Literature values in patent US20120082623A1, “SHH Regulation and Methods Thereof” (priority 2009, published 2012).

Tested on: SVZ derived EGFR+ cells
Details: neurospheres, dose dependent manner; cited from earlier work

For NCCc1ccc(O)c(O)c1 [dopamine], the “proliferation of SVZ derived EGFR+ cells” value is given as “increased the proliferation of SVZ derived EGFR+ cells”.
